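1) Cells in 96-well plates. 2) Compound, 48 h, 5 concentrations. 3) Linear interpolation between surrounding doses. 4) Unreached endpoint = highest concentration. TGI denotes the concentration required for complete inhibition of growth.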

Common to all, as to assay: DTP human tumour cell line panel, 48 h
For assay [1], the system named is COLO 205 colon.
Assay [2] concerns HCT-116 colon.
The test system of assay [3] is SNB-75 CNS.
Assay [4] relates to NCI-H226 lung.
The subject of assay [5] is HS 578T breast.
In assay [6] the test system is HL-60(TB) leukemia.
Assay [7] has as its system CAKI-1 renal.
Assay [8] relates to KM12 colon.
Assay [9] relates to HOP-62 NSCLC.
Assay [10] deals with U251 CNS.

Regarding `CCOC(=O)c1c(NS(=O)(=O)c2ccccc2)sc2c1CCCC2`, the TGI in assay [1], in [2], in assay [3], in [4], in [5] and in assay [6] was above 100 µM in each case. Besides, the TGI in [7], in assay [8] and in [9] was above 100 µM in each case.
In the case of `O=C(OC[C@H]1C[C@H]2C(=O)OCCC[C@H]2O1)c1ccccc1`, the TGI in assay [1], in assay [2], in [3], in assay [4], in [5] and in assay [6] was above 100 µM in each case. For the same compound, the concentration for total growth inhibition (TGI) in [7], in [10], in assay [8] and in assay [9] was above 100 µM throughout.
`COc1ccc2nc(-c3ccc(N)cc3)sc2c1`: the total growth inhibition concentration (TGI) in assay [1], in assay [2], in assay [3], in [4], in assay [5] and in assay [6] was above 100 µM each time. For the same compound, the TGI in [7], in [10], in assay [8] and in assay [9] was above 100 µM in each case.
For the compound `O=C1c2ccccc2CC12Cc1ccc3c(c1C2=O)CCCC3` (stereo unspecified), the TGI in [1] is above 100 µM; in assay [2], above 100 µM; in assay [3], 70.5 µM; in assay [4] it was above 100 µM; in assay [5], 48.3 µM; in assay [6], above 100 µM. Also, the TGI in [10], in assay [8] and in assay [9] was above 100 µM in each case.
Turning to `O=C1CC2(CCN(Cc3ccccc3)CC2)C(=O)N1N1CCCCC1`, the TGI in assay [1], in assay [2], in assay [3], in assay [4], in assay [5] and in assay [6] was above 100 µM throughout. The TGI in assay [7], in assay [10], in [8] and in assay [9] was above 100 µM throughout.
For `CC(C)C1OC(=O)C(Cc2ccccc2)N(C)C(=O)C(C(C)C)OC(=O)C(Cc2ccccc2)N(C)C(=O)C(C(C)C)OC(=O)C(Cc2ccccc2)N(C)C1=O` (stereo unspecified), the TGI in [1] worked out at 1.95 µM; in assay [2] it was 2.36 µM; in assay [3], 2.99 µM; in assay [4] it was 2.72 µM; in assay [5], 4.9 µM; in [6], 1.21 µM. For the same compound, the TGI in assay [7] is 2.46 µM; in [10], 1.77 µM; in assay [8], 1.33 µM; in assay [9], 2.19 µM.
Regarding `CCOc1c2c(cc3c1C(=O)c1c(OC)cccc1C3=O)C=C(OC)CC2`, the total growth inhibition concentration (TGI) in [1] is above 25 µM; in assay [2], above 25 µM; in assay [3], above 25 µM; in assay [4], above 25 µM; in assay [5], above 25 µM; in assay [6] it was 13.2 µM. In addition, the total growth inhibition concentration (TGI) in [7], in [10], in assay [8] and in assay [9] was above 25 µM in each case.
Take `CSC(SC)=C(C#N)C(=O)Nc1ccc(Cl)cc1`: the TGI was 35.9 µM in assay [1]; above 100 µM in assay [2]; above 100 µM in assay [3]; 85.9 µM in assay [4]; above 100 µM in assay [5]; 69.3 µM in [6]. Moreover, the results for the TGI in [7], in assay [10] and in assay [8] were 78.9 µM, above 100 µM and above 100 µM, respectively.
Take `O=[N+]([O-])C(/C=C(\Cl)[N+](=O)[O-])=C(N1CCOCC1)N1CCOCC1`: the TGI in [1] was 33.9 µM; in assay [2], 62 µM; in [3], above 100 µM; in assay [4], above 100 µM; in assay [5], above 100 µM; in assay [6], 36.8 µM. Moreover, the TGI is 61 µM in [7], 46.7 µM in assay [10], above 100 µM in [8] and 37.7 µM in assay [9].
With `CN1N=C(c2ccncc2)OC1c1ccc(C(F)(F)F)cc1` (stereo unspecified), the total growth inhibition concentration (TGI) in assay [1] is above 100 µM; in assay [2], above 100 µM; in [3], 87.8 µM; in assay [4], above 100 µM; in [5], above 100 µM; in assay [6], above 100 µM. Further, the TGI in assay [10], in assay [8] and in assay [9] was above 100 µM in each case.
For `NC1CC(=O)c2c(I)sc(I)c21` (stereo unspecified), the TGI in assay [1] was above 63 µM; in [2], above 49.4 µM; in [3], 37.9 µM; in [4], 45.6 µM; in assay [5], 75 µM; in assay [6], 14.6 µM. The TGI was 27.1 µM in [7], 51.1 µM in assay [10], 32.9 µM in assay [8] and 40.1 µM in assay [9].
Take `CCOC(=O)/C(C(=O)c1ccc[nH]1)=C1/CCCN1C`: the TGI in assay [1], in assay [2], in assay [3], in assay [4], in assay [5] and in assay [6] was above 100 µM in each case. The TGI in assay [7], in assay [10], in assay [8] and in [9] was above 100 µM each time.
Consider `O=C(OC1C#CCSCC#C/C=C\1)c1ccc2c(c1)C(=O)c1ccccc1C2=O` (stereo unspecified), for which the TGI in assay [1], in assay [2], in assay [3], in assay [4], in assay [5] and in [6] was above 100 µM each time. Further, the TGI in [7] is above 100 µM; in assay [10], 55.9 µM; in assay [8], above 100 µM; in [9] it was 42.8 µM.
As for `O=C1c2cccc3cc([N+](=O)[O-])cc(c23)C(=O)N1c1ccc(OCCN2CCCC2)cc1`, the TGI in assay [1] was 38.3 µM; in assay [2] it was 46.7 µM; in assay [3], 67.1 µM; in assay [4], 24.2 µM; in [5], above 100 µM; in assay [6], 29 µM. Further, the TGI in [7] was above 100 µM; in assay [10], 41.3 µM; in assay [8], above 100 µM; in [9] it was 76.4 µM.
As for `CC1(C)OCC(/C=C\C(O)CC2(C)OCCO2)CO1` (stereo unspecified), the concentration for total growth inhibition (TGI) in [1], in assay [2], in assay [3], in assay [4], in [5] and in assay [6] was above 100 µM throughout. Besides, the TGI in assay [7], in [10], in [8] and in assay [9] was above 100 µM each time.
Take `N#CCCN(C(=O)Nc1ccc(NC(=O)N(CCC#N)c2ccccc2)cc1)c1ccccc1`: the TGI in assay [1], in assay [2], in assay [3], in [4], in [5] and in [6] was above 100 µM in each case. The TGI in [7], in [10], in assay [8] and in assay [9] was above 100 µM throughout.
Take `O=C(O)COc1c(Cl)cc(Cl)c(C(c2c(Cl)cc(Cl)c(OCC(=O)O)c2Cl)C(Cl)(Cl)Cl)c1Cl`: the TGI in assay [1] was above 100 µM; in [2], above 100 µM; in assay [3] it was 93.5 µM; in assay [4], 64.1 µM; in assay [5] it was above 100 µM; in assay [6], 59.9 µM. In addition, the TGI in [7] is above 100 µM; in [10] it was 77.4 µM; in assay [8], above 100 µM; in [9] it was 15.7 µM.
In the case of `O=C(O)c1ccccc1Sc1ccc(C=C2NC(=S)N(c3ccccc3)C2=O)s1`, the TGI in assay [1] is above 100 µM; in [2], above 100 µM; in [3], above 100 µM; in assay [4] it was above 100 µM; in assay [5] it was above 100 µM; in assay [6], 82.1 µM. For the same compound, the TGI in assay [7], in assay [10], in assay [8] and in assay [9] was above 100 µM each time.
With `Cc1ccc(NC(c2ccccc2)P(=O)(c2ccccc2)c2ccccc2)cc1` (stereo unspecified), the TGI is above 100 µM in assay [1]; above 100 µM in assay [2]; 41.3 µM in assay [3]; above 100 µM in assay [4]; above 100 µM in [5]; above 100 µM in assay [6]. Further, the total growth inhibition concentration (TGI) in assay [7], in [10], in [8] and in [9] was above 100 µM each time.
For the compound `CCc1nnc2sc(-c3ccc(-c4ccccc4[N+](=O)[O-])o3)nn12`, the TGI in [1] is above 100 µM; in assay [2] it was above 100 µM; in assay [3], above 100 µM; in [4], 44 µM; in assay [5], above 100 µM; in [6], 99.2 µM. Moreover, the TGI in assay [7], in [10], in assay [8] and in assay [9] was above 100 µM each time.
Consider `O=C1N[C@@H]([C@H]2CC[C@H](Cl)CN2)C(=O)N[C@H]1[C@H]1CC[C@H](Cl)CN1`, for which the TGI in [1] worked out at 9.68 µM; in assay [2] it was 32.7 µM; in [3], 3.65 µM; in [4], 11.6 µM; in assay [5] it was 91.7 µM; in [6], 0.426 µM. In addition, the TGI in assay [7] was found to be 3.06 µM; in assay [10], 12.3 µM; in assay [8], 19.1 µM; in assay [9] it was 4.04 µM.
As to `CCn1c(=O)c2nc(SC)sc2n(-c2ccccc2)c1=S`, the TGI was above 100 µM in [2]; above 100 µM in [3]; above 100 µM in assay [4]; above 100 µM in [5]; 19.9 µM in assay [6]; above 100 µM in [10]. The TGI in [8] and in [9] was above 100 µM each time.
Regarding `Cc1cccc(NC(=S)NNC(=O)c2cc(-c3ccccc3)nc3ccccc23)c1`, the TGI in [1] was 40.1 µM; in assay [2] it was 48.4 µM; in [3] it was above 100 µM; in assay [4], above 100 µM; in [5], above 100 µM; in assay [7], 72.4 µM. For the same compound, the TGI was 89.9 µM in [10], above 100 µM in [8] and 99.3 µM in assay [9].
For `CCCCCCCC(=O)NC(C)(C)C(=O)NCC(=O)NC(CC(C)C)C(=O)NC(C)(C)C(=O)NCC(=O)NCC(=O)NC(CC(C)C)C(=O)NC(C)(C)C(=O)NCC(=O)NC(C(=O)NC(CO)CC(C)C)C(C)CC` (stereo unspecified), the total growth inhibition concentration (TGI) in assay [1] stood at 7.18 µM; in assay [2], 7.09 µM; in assay [3] it was 7.28 µM; in [4], 8.48 µM; in [5] it was 8.81 µM; in assay [7] it was 8.07 µM. Besides, the TGI in assay [10] came to 5.33 µM; in [8] it was 5.15 µM; in assay [9], 8.12 µM.
With `CCC(C)C(NC(=O)c1cccc2c(=O)c3ccccc3[nH]c12)C(=O)O` (stereo unspecified), the TGI in assay [1], in assay [2], in [3], in assay [4], in assay [5] and in assay [10] was above 100 µM in each case. Further, the TGI in [8] and in assay [9] was above 100 µM throughout.
With `Cc1n[nH]c(=O)c2c3c([nH]c12)-c1ccccc1C3`, the TGI in assay [1] is above 100 µM; in [2], above 100 µM; in assay [3], 66.6 µM; in [4], above 100 µM; in assay [5], above 100 µM; in assay [7], above 100 µM. Further, the TGI in assay [10], in assay [8] and in assay [9] was above 100 µM throughout.
In the case of `NC1=Nc2ncccc2C(=O)NN1`, the TGI in [2], in [3], in assay [4], in assay [5], in assay [6] and in assay [10] was above 10 µM each time. Moreover, the TGI in [8] and in assay [9] was above 10 µM in each case.
`CC(C)=CC(=O)c1[nH]c2ccccc2c1CC(=O)NCCc1cnc[nH]1`: the TGI in assay [1], in assay [2], in [3], in assay [4], in assay [5] and in assay [6] was above 100 µM throughout. Moreover, the TGI in [7], in [10] and in assay [8] was above 100 µM each time.

One may read the TGI as the concentration at which net growth stops. A lower TGI goes with greater sensitivity of the cells.

The values are drawn from PubChem BioAssay (NCI).
